In US20220265597A1, “ANTIVIRAL EFFECTS OF NARASIN IN SWINE FEED” (Elanco US Inc., priority 2014, published 2022):
Marks after values point to notes of the source that are not given here.

Key:
[1] = test system: PEDV; assay: Intestinal histology score and immunohistochemistry of PEDV-challenged nursery pigs; type: in vivo, pig; conditions: not significant (P>0.05)
Experimental: (§1) Viral shedding values was evaluated by RMANOVA and the PROC MIXED procedure of SAS (SAS, Cary, N.C.). Other variables for analysis included growth performance data (average daily gain, or ADG; average daily feed intake, or ADFI; and feed efficiency (unit of weight gain per unit of feed consumed), or G:F), incidence and severity of diarrhea, depression, and gauntness scores, and intestinal histology score and immunohistochemistry. The analysis of the growth performance outcomes were conducted using a generalized linear mixed model and the PROC MIXED procedure of SAS.
The effects of narasin inclusion level on the intestinal histology score and immunohistochemistry were analyzed. As narasin level increased from 0, 30, 60 mg/kg), histology scores decreased from 2 to 0 while the immunohistochemistry score decreased only at the 60 mg/kg level (from 3 to 2) although differences were not significant (P>0.05).

[2] = test system: PEDV; assay: Growth performance of nursery pigs challenged with PEDV, narasin in feed; type: in vivo, pig; conditions: for numerical increase of overall ADG compared to the control / numerical increase of overall G:F compared to the control: overall (Day 0 to 14)
From the text: Eighty-one weaning stage (21.8+/−0.6 days) commercial crossbred piglets (Wilson's Prairie View Farms, Burlington, Wis.) free of PEDV infection arrived at the site and six were used as potential replacement animals during the pre-challenge period (Day −7 to Day 0). Six piglets were removed at Day 0 immediately prior to PEDV challenge, resulting in fifteen pens containing five piglets/pen (n=75) animals. There were five pens per treatment. For balance of sentinel piglets within a block, a total of thirty-nine piglets of one gender and thirty-six of the other gender were used. The use of five pens (twenty-five piglets) per treatment group was estimated to detect significant differences (P<0.10) between treatment groups in growth performance and incidence of viral shedding.
(§2) The seventy-five piglets were randomly assigned to one of three treatment groups: control (no ionophore), narasin (30 mg/kg) and narasin (60 mg/kg). They acclimatized to their environment and were fed daily for seven days prior to exposure with PEDV on Day 0. Treatment continued for 14 days following challenge. Pigs from the three treatment groups were administered orally with 4×10^4 TCID50/mL of the PEDV isolate PEDV/USA/NC/2013/49469 (College of Veterinary Medicine, Iowa State University). The piglets were monitored daily for changes in clinical parameters, clinical score for diarrhea, depression and gauntness, rate of food consumption, and rate of body weight change and viral swabs were taken daily to determine viral shedding.
as §1
Diet formulations were manufactured at Provimi (Lewisburg, Ohio) and fed in meal form.
The effects of narasin inclusion level on mean body weights (BW), average daily weight gain (ADG), average daily feed intake (ADFI), feed efficiency (G:F), and feed conversion ratio (F:G) are shown in Table 1.

[3] = test system: nursery pigs; conditions: about 83 mg/kg feed, at least in the presence of tiamulin; cited from earlier work
[4] = test system: PEDV; assay: Enteric clinical observation scoring (diarrhea, depression, gauntness) of nursery pigs challenged with PEDV; type: in vivo, pig; parameters: Depression score, Severity: scale not given here; conditions: for Depression score, Severity / Diarrhea score, Severity / Gauntness score, Severity: average of worst score of each pig over 14-d period; for Depression score, Incidence / Diarrhea score, Incidence / Gauntness score, Incidence: pigs affected/pigs; for Gauntness score, Mean of Day 0 to 14: score 0-2; for Depression score, Mean of Day 0 to 14: score 0-3; for Diarrhea score, Mean of Day 0 to 14: score 1-4
Experimental: as §2
Incidence and severity of the score data (diarrhea, depression, and gauntness) were summarized by frequencies and mean scores on a daily basis.
Table 2 indicates the scoring system used to measure diarrhea, depression, and gauntness. Table 3 compares the mean scores for diarrhea, depression and gauntness in nursery pigs whose diet included 0, 30 or 60 mg/kg narasin.

[5] = test system: flavivirus responsible for dengue fever; conditions: added to cultured human cells infected with the virus (Low, et al. 2011); cited from earlier work
[6] = 60 mg/kg feed, Day 0 to 5, P<0.10
[7] = 0, 30, 60 mg/kg feed, 14-d period

For `CC[C@@H](C(=O)O)[C@@H]1O[C@@H]([C@@H](C)[C@H](O)[C@H](C)C(=O)[C@H](CC)[C@H]2O[C@]3(C=C[C@@H](O)[C@]4(CC[C@@](C)([C@H]5CC[C@](O)(CC)[C@H](C)O5)O4)O3)[C@H](C)C[C@@H]2C)[C@@H](C)C[C@@H]1C` [narasin], the immunohistochemistry score ([1]; 60 mg/kg feed, decreased from 3) was 2, the intestinal histology score ([1]; narasin level increased 0, 30, 60 mg/kg: decreased from 2 to 0) was 0 and the “effect of narasin level on overall growth performance” value ([2]; 0, 30, 60 mg/kg feed, Day 0 to 14, P>0.10) was “no effect”. For the same compound, the “differences for ADG, ADFI, G:F, or F:G” value ([2]; 0, 30, 60 mg/kg feed, Day 5 to 14) was “no statistical differences”, the BW ([2]; 30 mg/kg feed, Day 0 (PEDV challenge)) was 16.9 lb and the ADFI ([2]; 30 mg/kg feed, Day 0 to 5) was 0.68 lb. The ADG ([2]; 30 mg/kg feed, Day 0 to 5) was 0.38* lb, the “F:G” value ([2]; 30 mg/kg feed, Day 0 to 5) was 1.93 lb:lb and the “G:F” value ([2]; 30 mg/kg feed, Day 0 to 5) was 0.551 lb:lb. For the same compound, the “increase of ADG compared to the control” value ([2]; 30 mg/kg feed, Day 0 to 5, P<0.10) was 58.3%, the ADFI ([2]; 30 mg/kg feed, Day 0 to 14) was 1.00 lb and the ADG ([2]; 30 mg/kg feed, Day 0 to 14) was 0.70 lb. For the same compound, the “F:G” value ([2]; 30 mg/kg feed, Day 0 to 14) was 1.48 lb:lb, the “G:F” value ([2]; 30 mg/kg feed, Day 0 to 14) was 0.711 lb:lb and the BW ([2]; 30 mg/kg feed, Day 5) was 18.7 lb. The ADFI ([2]; 30 mg/kg feed, Day 5 to 14) was 1.23 lb, the ADG ([2]; 30 mg/kg feed, Day 5 to 14) was 0.92 lb and the “F:G” value ([2]; 30 mg/kg feed, Day 5 to 14) was 1.38 lb:lb. The “G:F” value ([2]; 30 mg/kg feed, Day 5 to 14) was 0.772 lb:lb, the BW ([2]; 30 mg/kg feed, Day 14) was 26.9 lb and the BW ([2]; 30 mg/kg feed, Day −7 (arrival, allotment)) was 14.9* lb. For the same compound, the ADFI ([2]; 30 mg/kg feed, Day −7 to 0) was 0.37 lb, the ADG ([2]; 30 mg/kg feed, Day −7 to 0) was 0.29 lb and the “F:G” value ([2]; 30 mg/kg feed, Day −7 to 0) was 1.33 lb:lb. For the same compound, the “G:F” value ([2]; 30 mg/kg feed, Day −7 to 0) was 0.802 lb:lb, the “numerical increase of overall ADG compared to the control” value ([2]; 30 mg/kg feed) was 7.7% and the “numerical increase of overall G:F compared to the control” value ([2]; 30 mg/kg feed) was 7.9%. The BW ([2]; 60 mg/kg feed, Day 0 (PEDV challenge)) was 16.7 lb, the ADFI ([2]; 60 mg/kg feed, Day 0 to 5) was 0.71 lb and the ADG ([2]; 60 mg/kg feed, Day 0 to 5) was 0.48* lb. The “F:G” value ([2]; 60 mg/kg feed, Day 0 to 5) was 1.56 lb:lb, the “G:F” value ([2]; 60 mg/kg feed, Day 0 to 5) was 0.670* lb:lb and the “increase of ADG compared to the control” value [2, 6] was 100%. The “increase of G:F compared to 0 mg/kg narasin” value [2, 6] was 78.7%, the ADFI ([2]; 60 mg/kg feed, Day 0 to 14) was 1.01 lb and the ADG ([2]; 60 mg/kg feed, Day 0 to 14) was 0.70 lb. For the same compound, the “F:G” value ([2]; 60 mg/kg feed, Day 0 to 14) was 1.44 lb:lb, the “G:F” value ([2]; 60 mg/kg feed, Day 0 to 14) was 0.698 lb:lb and the BW ([2]; 60 mg/kg feed, Day 5) was 19.2 lb. For the same compound, the ADFI ([2]; 60 mg/kg feed, Day 5 to 14) was 1.22 lb, the ADG ([2]; 60 mg/kg feed, Day 5 to 14) was 0.85 lb and the “F:G” value ([2]; 60 mg/kg feed, Day 5 to 14) was 1.42 lb:lb. The “G:F” value ([2]; 60 mg/kg feed, Day 5 to 14) was 0.708 lb:lb, the BW ([2]; 60 mg/kg feed, Day 14) was 26.9 lb and the BW ([2]; 60 mg/kg feed, Day −7 (arrival, allotment)) was 14.9* lb. The ADFI ([2]; 60 mg/kg feed, Day −7 to 0) was 0.36 lb, the ADG ([2]; 60 mg/kg feed, Day −7 to 0) was 0.26* lb and the “F:G” value ([2]; 60 mg/kg feed, Day −7 to 0) was 1.38 lb:lb. For the same compound, the “G:F” value ([2]; 60 mg/kg feed, Day −7 to 0) was 0.742 lb:lb, the “decrease of ADG compared to the control” value ([2]; 60 mg/kg feed, Day −7 to 0, P<0.10) was 18.8% and the “numerical increase of overall ADG compared to the control” value ([2]; 60 mg/kg feed) was 7.7%. The “numerical increase of overall G:F compared to the control” value ([2]; 60 mg/kg feed) was 5.9%, the “toxicity to nursery pigs” value [3] was “toxic” and the “effect of narasin level on mean of depression scores” value [4, 7] was “not affected”. For the same compound, the “effect of narasin level on mean or severity of gauntness scores” value [4, 7] was “little effect”, the “incidence of depression, animals” value ([4]; 30 mg/kg feed, 14-d period) was 4 animals and the “Depression score, Severity” value ([4]; 30 mg/kg feed) was 0.16. The “Diarrhea score, Severity” value ([4]; 30 mg/kg feed) was 2.72, the “Gauntness score, Severity” value ([4]; 30 mg/kg feed) was 0.68 and the “Depression score, Incidence” value ([4]; 30 mg/kg feed) was 4/25. The “Diarrhea score, Incidence” value ([4]; 30 mg/kg feed) was 19/25, the “Gauntness score, Incidence” value ([4]; 30 mg/kg feed) was 14/25 and the “Gauntness score, Mean of Day 0 to 14” value ([4]; 30 mg/kg feed) was 0.14. The “Depression score, Mean of Day 0 to 14” value ([4]; 30 mg/kg feed) was 0.03, the “Diarrhea score, Mean of Day 0 to 14” value ([4]; 30 mg/kg feed) was 1.45 and the “incidence of depression, animals” value ([4]; 60 mg/kg feed, 14-d period) was 3 animals. The “Depression score, Severity” value ([4]; 60 mg/kg feed) was 0.12, the “Diarrhea score, Severity” value ([4]; 60 mg/kg feed) was 2.48 and the “Gauntness score, Severity” value ([4]; 60 mg/kg feed) was 0.52. The “Depression score, Incidence” value ([4]; 60 mg/kg feed) was 3/25, the “Diarrhea score, Incidence” value ([4]; 60 mg/kg feed) was 19/25 and the “Gauntness score, Incidence” value ([4]; 60 mg/kg feed) was 11/25. The “Gauntness score, Mean of Day 0 to 14” value ([4]; 60 mg/kg feed) was 0.14, the “Depression score, Mean of Day 0 to 14” value ([4]; 60 mg/kg feed) was 0.02 and the “Diarrhea score, Mean of Day 0 to 14” value ([4]; 60 mg/kg feed) was 1.37. The “replication of dengue flavivirus” value [5] was “block replication”.
